{"source": "ChEMBL document CHEMBL4823296", "about": "“NMR-Guided Design of Potent and Selective EphA4 Agonistic Ligands” (J Med Chem, 2021)", "key": {"Ephrin type-A receptor 4 [1]": {"molecular_target": "T1, Ephrin type-A receptor 4 (Homo sapiens, UniProt P54764)", "T1 sequence (P54764 whole entry)": "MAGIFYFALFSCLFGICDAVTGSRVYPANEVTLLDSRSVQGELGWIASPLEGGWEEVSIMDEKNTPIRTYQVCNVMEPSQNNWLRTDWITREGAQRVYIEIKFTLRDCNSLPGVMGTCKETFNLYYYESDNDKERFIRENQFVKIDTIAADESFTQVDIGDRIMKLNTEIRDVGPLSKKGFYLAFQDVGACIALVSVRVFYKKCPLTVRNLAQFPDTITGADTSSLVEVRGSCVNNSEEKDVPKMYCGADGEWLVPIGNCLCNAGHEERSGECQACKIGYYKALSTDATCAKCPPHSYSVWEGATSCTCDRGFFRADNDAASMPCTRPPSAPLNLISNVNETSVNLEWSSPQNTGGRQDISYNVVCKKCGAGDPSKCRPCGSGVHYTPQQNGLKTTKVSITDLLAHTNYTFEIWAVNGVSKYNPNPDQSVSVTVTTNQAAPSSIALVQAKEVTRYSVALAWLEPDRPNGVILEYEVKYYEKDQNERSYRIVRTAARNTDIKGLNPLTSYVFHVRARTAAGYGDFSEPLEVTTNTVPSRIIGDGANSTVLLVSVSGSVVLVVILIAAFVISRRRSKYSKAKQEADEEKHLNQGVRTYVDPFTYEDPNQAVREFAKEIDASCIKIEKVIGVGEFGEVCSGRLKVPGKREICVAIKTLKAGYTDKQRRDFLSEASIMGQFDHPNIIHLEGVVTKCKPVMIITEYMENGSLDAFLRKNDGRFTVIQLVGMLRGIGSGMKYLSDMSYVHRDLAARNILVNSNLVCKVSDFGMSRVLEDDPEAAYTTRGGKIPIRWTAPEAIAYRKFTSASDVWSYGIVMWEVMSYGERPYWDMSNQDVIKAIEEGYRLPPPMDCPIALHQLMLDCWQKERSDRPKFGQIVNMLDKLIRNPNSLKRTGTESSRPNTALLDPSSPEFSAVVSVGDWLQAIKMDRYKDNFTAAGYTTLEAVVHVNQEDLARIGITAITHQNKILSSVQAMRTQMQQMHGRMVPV", "description": "Binding affinity to N-terminal His tagged EphA4 LBD (unknown origin) (29 to 209 residues) expressed in Rosetta-Gami B(DE3) cells assessed as change in entropy by isothermal titration calorimetry"}, "Ephrin type-A receptor 4 [2]": {"molecular_target": "T1, Ephrin type-A receptor 4", "remark": "listed apart in the source", "description": "Binding affinity to N-terminal His tagged EphA4 LBD (unknown origin) (29 to 209 residues) expressed in Rosetta-Gami B(DE3) cells assessed as change in enthalpy by isothermal titration calorimetry"}, "Ephrin type-A receptor 4 [3]": {"molecular_target": "T1, Ephrin type-A receptor 4", "assay": "Binding affinity to N-terminal His tagged EphA4 LBD (unknown origin) (29 to 209 residues) expressed in Rosetta-Gami B(DE3) cells by isothermal titration calorimetry"}}, "note": "Non-standard residues stand in square brackets, D forms with d. Residues, ends and D or L forms follow the SMILES beside them. *: point of attachment. Phe(4-guanidino) = N=C(N)Nc1ccc(C[C@H](N)C(=O)O)cc1; Trp(5-OH) = N[C@@H](Cc1c[nH]c2ccc(O)cc12)C(=O)O; Bip = N[C@@H](Cc1ccc(-c2ccccc2)cc1)C(=O)O; 1Nal = N[C@@H](Cc1cccc2ccccc12)C(=O)O; 2Nal = N[C@@H](Cc1ccc2ccccc2c1)C(=O)O; d(hArg) = N=C(N)NCCCC[C@@H](N)C(=O)O; hArg = N=C(N)NCCCC[C@H](N)C(=O)O; NHPh = c1ccc(N*)cc1; GABA = NCCCC(=O)O"}
{"compound": "N=C(N)NCCCC[C@H](NC(=O)[C@H](Cc1ccc(-c2ccc(Cl)cc2)cc1)NC(=O)[C@H](Cc1c[nH]c2ccc(O)cc12)NC(=O)CCCN)C(N)=O", "values": [{"measurement": "-TdeltaS", "setting": "Ephrin type-A receptor 4 [1]", "value": 2, "unit": "kcal/mol"}, {"measurement": "deltaH", "setting": "Ephrin type-A receptor 4 [2]", "value": -10.4, "unit": "kcal/mol"}, {"measurement": "Kd", "setting": "Ephrin type-A receptor 4 [3]", "value": 749, "unit": "nM"}]}
{"compound": "Cc1ccccc1-c1ccc(C[C@H](NC(=O)[C@H](Cc2c[nH]c3ccc(O)cc23)NC(=O)CCCN)C(=O)N[C@@H](CCCCNC(=N)N)C(N)=O)cc1", "values": [{"measurement": "-TdeltaS", "setting": "Ephrin type-A receptor 4 [1]", "value": 3.29, "unit": "kcal/mol"}, {"measurement": "deltaH", "setting": "Ephrin type-A receptor 4 [2]", "value": -12.1, "unit": "kcal/mol"}, {"measurement": "Kd", "setting": "Ephrin type-A receptor 4 [3]", "value": 362, "unit": "nM"}]}
{"compound": "N=C(N)NCCCC[C@H](NC(=O)[C@H](Cc1ccc(-c2ccccc2)cc1)NC(=O)[C@H](Cc1c[nH]c2ccc(O)cc12)NC(=O)[C@H]1CC[C@H](N)C1)C(N)=O", "values": [{"measurement": "-TdeltaS", "setting": "Ephrin type-A receptor 4 [1]", "value": 0.21, "unit": "kcal/mol"}, {"measurement": "deltaH", "setting": "Ephrin type-A receptor 4 [2]", "value": -8.33, "unit": "kcal/mol"}, {"measurement": "Kd", "setting": "Ephrin type-A receptor 4 [3]", "value": 1120, "unit": "nM"}]}
{"compound": "N=C(N)NCCCC[C@H](NC(=O)[C@H](Cc1ccc(-c2ccccc2)cc1)NC(=O)[C@H](Cc1c[nH]c2ccc(O)cc12)NC(=O)[C@H]1CCC[C@H](N)C1)C(N)=O", "values": [{"measurement": "-TdeltaS", "setting": "Ephrin type-A receptor 4 [1]", "value": -0.67, "unit": "kcal/mol"}, {"measurement": "deltaH", "setting": "Ephrin type-A receptor 4 [2]", "value": -8.1, "unit": "kcal/mol"}, {"measurement": "Kd", "setting": "Ephrin type-A receptor 4 [3]", "value": 370, "unit": "nM"}]}
{"compound": "N=C(N)NCCCC[C@H](NC(=O)[C@H](Cc1ccc(-c2ccccc2)cc1)NC(=O)[C@H](Cc1c[nH]c2ccc(O)cc12)NC(=O)[C@@H]1CCC[C@@H](N)C1)C(N)=O", "values": [{"measurement": "-TdeltaS", "setting": "Ephrin type-A receptor 4 [1]", "value": 1.32, "unit": "kcal/mol"}, {"measurement": "deltaH", "setting": "Ephrin type-A receptor 4 [2]", "value": -9.39, "unit": "kcal/mol"}, {"measurement": "Kd", "setting": "Ephrin type-A receptor 4 [3]", "value": 1210, "unit": "nM"}]}
{"compound": "Cc1ccc(-c2ccc(C[C@H](NC(=O)[C@H](Cc3c[nH]c4ccc(O)cc34)NC(=O)CCCN)C(=O)N[C@@H](CCCCNC(=N)N)C(N)=O)cc2)cc1", "values": [{"measurement": "-TdeltaS", "setting": "Ephrin type-A receptor 4 [1]", "value": 1.77, "unit": "kcal/mol"}, {"measurement": "deltaH", "setting": "Ephrin type-A receptor 4 [2]", "value": -10.2, "unit": "kcal/mol"}, {"measurement": "Kd", "setting": "Ephrin type-A receptor 4 [3]", "value": 708, "unit": "nM"}]}
{"compound": "N=C(N)NCCCC[C@H](NC(=O)[C@H](Cc1ccc(-c2ccccc2)cc1)NC(=O)[C@H](Cc1c[nH]c2ccc(O)cc12)NC(=O)[C@@H]1CC[C@@H](N)C1)C(N)=O", "values": [{"measurement": "-TdeltaS", "setting": "Ephrin type-A receptor 4 [1]", "value": 1.46, "unit": "kcal/mol"}, {"measurement": "deltaH", "setting": "Ephrin type-A receptor 4 [2]", "value": -9.82, "unit": "kcal/mol"}, {"measurement": "Kd", "setting": "Ephrin type-A receptor 4 [3]", "value": 740, "unit": "nM"}]}
{"compound": "N=C(N)Nc1ccc(C[C@H](NC(=O)[C@H](Cc2ccc(-c3ccccc3)cc2)NC(=O)[C@H](Cc2c[nH]c3ccccc23)NC(=O)CCCN)C(N)=O)cc1", "note": "(H-[GABA]W[Bip][Phe(4-guanidino)]-NH2)", "values": [{"measurement": "-TdeltaS", "setting": "Ephrin type-A receptor 4 [1]", "value": 1.33, "unit": "kcal/mol"}, {"measurement": "deltaH", "setting": "Ephrin type-A receptor 4 [2]", "value": -9.43, "unit": "kcal/mol"}, {"measurement": "Kd", "setting": "Ephrin type-A receptor 4 [3]", "value": 1160, "unit": "nM"}]}
{"compound": "N=C(N)NCCCC[C@@H](NC(=O)[C@H](Cc1ccc(-c2ccccc2)cc1)NC(=O)[C@H](Cc1c[nH]c2ccccc12)NC(=O)CCCN)C(N)=O", "note": "(H-[GABA]W[Bip][d(hArg)]-NH2)", "values": [{"measurement": "-TdeltaS", "setting": "Ephrin type-A receptor 4 [1]", "value": 0.3, "unit": "kcal/mol"}, {"measurement": "deltaH", "setting": "Ephrin type-A receptor 4 [2]", "value": -9.26, "unit": "kcal/mol"}, {"measurement": "Kd", "setting": "Ephrin type-A receptor 4 [3]", "value": 270, "unit": "nM"}]}
{"compound": "N=C(N)NCCCC[C@H](NC(=O)[C@H](Cc1ccc(-c2ccccc2)cc1)NC(=O)[C@H](Cc1c[nH]c2ccccc12)NC(=O)CCCN)C(N)=O", "note": "(H-[GABA]W[Bip][hArg]-NH2)", "values": [{"measurement": "-TdeltaS", "setting": "Ephrin type-A receptor 4 [1]", "value": 2.27, "unit": "kcal/mol"}, {"measurement": "deltaH", "setting": "Ephrin type-A receptor 4 [2]", "value": -10.7, "unit": "kcal/mol"}, {"measurement": "Kd", "setting": "Ephrin type-A receptor 4 [3]", "value": 663, "unit": "nM"}]}
{"compound": "N=C(N)NCCCC[C@H](NC(=O)[C@H](Cc1cccc2ccccc12)NC(=O)[C@H](Cc1c[nH]c2ccc(O)cc12)NC(=O)CCCN)C(N)=O", "note": "(H-[GABA][Trp(5-OH)][1Nal][hArg]-NH2)", "values": [{"measurement": "-TdeltaS", "setting": "Ephrin type-A receptor 4 [1]", "value": 1.46, "unit": "kcal/mol"}, {"measurement": "deltaH", "setting": "Ephrin type-A receptor 4 [2]", "value": -8.22, "unit": "kcal/mol"}]}
{"compound": "N=C(N)NCCCC[C@H](NC(=O)[C@H](Cc1ccc2ccccc2c1)NC(=O)[C@H](Cc1c[nH]c2ccc(O)cc12)NC(=O)CCCN)C(N)=O", "note": "(H-[GABA][Trp(5-OH)][2Nal][hArg]-NH2)", "values": [{"measurement": "-TdeltaS", "setting": "Ephrin type-A receptor 4 [1]", "value": 1.27, "unit": "kcal/mol"}, {"measurement": "deltaH", "setting": "Ephrin type-A receptor 4 [2]", "value": -8.49, "unit": "kcal/mol"}, {"measurement": "Kd", "setting": "Ephrin type-A receptor 4 [3]", "value": 5250, "unit": "nM"}]}
{"compound": "NCCCC[C@H](NC(=O)[C@H](Cc1ccc(-c2ccccc2)cc1)NC(=O)[C@H](Cc1c[nH]c2ccc(O)cc12)NC(=O)CCCN)C(N)=O", "note": "(H-[GABA][Trp(5-OH)][Bip]K-NH2)", "values": [{"measurement": "-TdeltaS", "setting": "Ephrin type-A receptor 4 [1]", "value": 2.54, "unit": "kcal/mol"}, {"measurement": "deltaH", "setting": "Ephrin type-A receptor 4 [2]", "value": -11.2, "unit": "kcal/mol"}, {"measurement": "Kd", "setting": "Ephrin type-A receptor 4 [3]", "value": 437, "unit": "nM"}]}
{"compound": "N=C(N)NCCC[C@H](NC(=O)[C@H](Cc1ccc(-c2ccccc2)cc1)NC(=O)[C@H](Cc1c[nH]c2ccc(O)cc12)NC(=O)CCCN)C(N)=O", "note": "(H-[GABA][Trp(5-OH)][Bip]R-NH2)", "values": [{"measurement": "-TdeltaS", "setting": "Ephrin type-A receptor 4 [1]", "value": 2.35, "unit": "kcal/mol"}, {"measurement": "deltaH", "setting": "Ephrin type-A receptor 4 [2]", "value": -11, "unit": "kcal/mol"}, {"measurement": "Kd", "setting": "Ephrin type-A receptor 4 [3]", "value": 459, "unit": "nM"}]}
{"compound": "N=C(N)NCCCC[C@H](NC(=O)[C@H](Cc1ccc(-c2ccccc2)cc1)NC(=O)[C@H](Cc1c[nH]c2ccc(O)cc12)NC(=O)CCCN)C(=O)NCC(=O)Nc1ccccc1", "note": "(H-[GABA][Trp(5-OH)][Bip][hArg]G-NHPh)", "values": [{"measurement": "-TdeltaS", "setting": "Ephrin type-A receptor 4 [1]", "value": 2.87, "unit": "kcal/mol"}, {"measurement": "deltaH", "setting": "Ephrin type-A receptor 4 [2]", "value": -12.3, "unit": "kcal/mol"}, {"measurement": "Kd", "setting": "Ephrin type-A receptor 4 [3]", "value": 132, "unit": "nM"}]}
